Measured values from patent US10202361B2, “Pyridazinones as herbicides” (E I DU PONT DE NEMOURS AND COMPANY, priority 2014, dated 2019).

Assays:
Test in all cases: Test D pre-/postemergence controlled growth environment herbicide test
Assay type in all cases: in vivo
Settings in all cases: scale 0 to 100
[1] = tested on: barley, winter (winter barley, Hordeum vulgare)
Text: (§1) Seeds of plant species selected from bluegrass (annual bluegrass, Poa annua), blackgrass (Alopecurus myosuroides), canarygrass (Phalaris minor), chickweed (common chickweed, Stellaria media), galium (catchweed bedstraw, Galium aparine), downy bromegrass (Bromus tectorum), field poppy (Papaver rhoeas), field violet (Viola arvensis), foxtail, green (green foxtail, Setaria viridis), deadnettle (henbit deadnettle, Lamium amplexicaule), ryegrass, Italian (Italian ryegrass, Lolium multiflorum), kochia (Kochia scoparia), lambsquarters (Chenopodium album), oilseed rape (Brassica napus), pigweed (Amaranthus retroflexus), chamomile (scentless chamomile, Matricaria inodora), Russian thistle (Salsola kali), speedwell (bird's-eye speedwell, Veronica persica), barley, spring (spring barley, Hordeum vulgare), wheat, spring (spring wheat, Triticum aestivum), buckwheat, wild (wild buckwheat, Polygonum convolvulus), mustard, wild (wild mustard, Sinapis arvensis), oat, wild (wild oat, Avena fatua), radish, wild (wild radish, Raphanus raphanistrum), windgrass (Apera spica-venti), barley, winter (winter barley, Hordeum vulgare), and wheat, winter (winter wheat, Triticum aestivum) were planted into a silt loam soil and treated preemergence with test chemicals formulated in a non-phytotoxic solvent mixture which included a surfactant.
(§2) At the same time, these species were planted in pots containing Redi-Earth® planting medium (Scotts Company, 14111 Scottslawn Road, Marysville, Ohio 43041) comprising spaghnum peat moss, vermiculite, wetting agent and starter nutrients and treated with postemergence applications of the test chemicals formulated in the same manner. Plants ranged in height from 2 to 18 cm (1- to 4-leaf stage). Treated plants and controls were maintained in a controlled growth environment for 14 to 21 d after which time all species were compared to controls and visually evaluated. Plant response ratings, summarized in Table D, are based on a scale of 0 to 100 where 0 is no effect and 100 is complete control. A dash (-) response means no test result.

[2] = tested on: bluegrass (annual bluegrass, Poa annua)
Text: as §1, §2

kochia (Kochia scoparia) = tested on: kochia (Kochia scoparia)
Text: as §1, §2

[3] = tested on: canarygrass (Phalaris minor)
Text: as §1, §2

[4] = tested on: chickweed (common chickweed, Stellaria media)
Text: as §1, §2

[5] = tested on: wheat, spring (spring wheat, Triticum aestivum)
Text: as §1, §2

[6] = tested on: oat, wild (wild oat, Avena fatua)
Text: as §1, §2

[7] = tested on: pigweed (Amaranthus retroflexus)
Text: as §1, §2

[8] = tested on: mustard, wild (wild mustard, Sinapis arvensis)
Text: as §1, §2

[9] = tested on: barley, spring (spring barley, Hordeum vulgare)
Text: as §1, §2

[10] = tested on: ryegrass, Italian (Italian ryegrass, Lolium multiflorum)
Text: as §1, §2

Work on `Cc1cc(=O)n(-c2ccc(F)cc2)nc1Cc1ccnc(C(F)(F)F)c1` [Compound 1, 2-(4-fluorophenyl)-5-methyl-6-[[2-(trifluoromethyl)-4-pyridinyl]methyl]-3(2H)-pyridazinone] yielded a Plant response rating ([1]; Postemergence, 31 g ai/ha) of 0, a Plant response rating ([1]; Postemergence, 62 g ai/ha) of 0 and a Plant response rating ([1]; Postemergence, 125 g ai/ha) of 0. For the same molecule, the Plant response rating ([1]; Postemergence, 250 g ai/ha) was 10, the Plant response rating ([1]; Postemergence, 500 g ai/ha) was 15 and the Plant response rating ([1]; Preemergence, 31 g ai/ha) was 0. The Plant response rating ([1]; Preemergence, 62 g ai/ha) was 5, the Plant response rating ([1]; Preemergence, 125 g ai/ha) was 5 and the Plant response rating ([1]; Preemergence, 250 g ai/ha) was 40. The Plant response rating ([1]; Preemergence, 500 g ai/ha) was 60, the Plant response rating ([2]; Postemergence, 31 g ai/ha) was 5 and the Plant response rating ([2]; Postemergence, 62 g ai/ha) was 5. The Plant response rating ([2]; Postemergence, 125 g ai/ha) was 10, the Plant response rating ([2]; Postemergence, 250 g ai/ha) was 10 and the Plant response rating ([2]; Postemergence, 500 g ai/ha) was 10. For the same molecule, the Plant response rating ([2]; Preemergence, 31 g ai/ha) was 0, the Plant response rating ([2]; Preemergence, 62 g ai/ha) was 0 and the Plant response rating ([2]; Preemergence, 125 g ai/ha) was 0. For the same molecule, the Plant response rating ([2]; Preemergence, 250 g ai/ha) was 15, the Plant response rating ([2]; Preemergence, 500 g ai/ha) was 45 and the Plant response rating (kochia (Kochia scoparia); Postemergence, 31 g ai/ha) was 15. It also gave a Plant response rating (kochia (Kochia scoparia); Postemergence, 62 g ai/ha) of 20, a Plant response rating (kochia (Kochia scoparia); Postemergence, 125 g ai/ha) of 30 and a Plant response rating (kochia (Kochia scoparia); Postemergence, 250 g ai/ha) of 50. It also gave a Plant response rating (kochia (Kochia scoparia); Postemergence, 500 g ai/ha) of 70, a Plant response rating (kochia (Kochia scoparia); Preemergence, 31 g ai/ha) of 70 and a Plant response rating (kochia (Kochia scoparia); Preemergence, 125 g ai/ha) of 80. It also gave a Plant response rating (kochia (Kochia scoparia); Preemergence, 250 g ai/ha) of 100, a Plant response rating (kochia (Kochia scoparia); Preemergence, 500 g ai/ha) of 100 and a Plant response rating ([3]; Postemergence, 31 g ai/ha) of 5. It also gave a Plant response rating ([3]; Postemergence, 62 g ai/ha) of 10, a Plant response rating ([3]; Postemergence, 125 g ai/ha) of 15 and a Plant response rating ([3]; Postemergence, 250 g ai/ha) of 20. It also gave a Plant response rating ([3]; Postemergence, 500 g ai/ha) of 20, a Plant response rating ([3]; Preemergence, 31 g ai/ha) of 0 and a Plant response rating ([3]; Preemergence, 62 g ai/ha) of 0. The Plant response rating ([3]; Preemergence, 125 g ai/ha) was 5, the Plant response rating ([3]; Preemergence, 250 g ai/ha) was 15 and the Plant response rating ([3]; Preemergence, 500 g ai/ha) was 30. For the same molecule, the Plant response rating ([4]; Postemergence, 31 g ai/ha) was 30, the Plant response rating ([4]; Postemergence, 62 g ai/ha) was 30 and the Plant response rating ([4]; Postemergence, 125 g ai/ha) was 50. The Plant response rating ([4]; Postemergence, 250 g ai/ha) was 50, the Plant response rating ([4]; Postemergence, 500 g ai/ha) was 60 and the Plant response rating ([4]; Preemergence, 31 g ai/ha) was 100. It also gave a Plant response rating ([4]; Preemergence, 62 g ai/ha) of 100, a Plant response rating ([4]; Preemergence, 125 g ai/ha) of 100 and a Plant response rating ([4]; Preemergence, 250 g ai/ha) of 100. The Plant response rating ([4]; Preemergence, 500 g ai/ha) was 100, the Plant response rating ([5]; Postemergence, 31 g ai/ha) was 0 and the Plant response rating ([5]; Postemergence, 62 g ai/ha) was 5. It also gave a Plant response rating ([5]; Postemergence, 125 g ai/ha) of 5, a Plant response rating ([5]; Postemergence, 250 g ai/ha) of 10 and a Plant response rating ([5]; Postemergence, 500 g ai/ha) of 10. The Plant response rating ([5]; Preemergence, 31 g ai/ha) was 0, the Plant response rating ([5]; Preemergence, 62 g ai/ha) was 0 and the Plant response rating ([5]; Preemergence, 125 g ai/ha) was 10. It also gave a Plant response rating ([5]; Preemergence, 250 g ai/ha) of 15, a Plant response rating ([5]; Preemergence, 500 g ai/ha) of 75 and a Plant response rating ([6]; Postemergence, 31 g ai/ha) of 10. For the same molecule, the Plant response rating ([6]; Postemergence, 62 g ai/ha) was 10, the Plant response rating ([6]; Postemergence, 125 g ai/ha) was 10 and the Plant response rating ([6]; Postemergence, 250 g ai/ha) was 10. For the same molecule, the Plant response rating ([6]; Postemergence, 500 g ai/ha) was 10, the Plant response rating ([6]; Preemergence, 62 g ai/ha) was 0 and the Plant response rating ([6]; Preemergence, 125 g ai/ha) was 15. The Plant response rating ([6]; Preemergence, 250 g ai/ha) was 35, the Plant response rating ([6]; Preemergence, 500 g ai/ha) was 80 and the Plant response rating ([7]; Postemergence, 31 g ai/ha) was 20. The Plant response rating ([7]; Postemergence, 62 g ai/ha) was 30, the Plant response rating ([7]; Postemergence, 125 g ai/ha) was 30 and the Plant response rating ([7]; Postemergence, 250 g ai/ha) was 40. The Plant response rating ([7]; Postemergence, 500 g ai/ha) was 50, the Plant response rating ([7]; Preemergence, 62 g ai/ha) was 20 and the Plant response rating ([7]; Preemergence, 125 g ai/ha) was 100. For the same molecule, the Plant response rating ([7]; Preemergence, 250 g ai/ha) was 100, the Plant response rating ([7]; Preemergence, 500 g ai/ha) was 100 and the Plant response rating ([8]; Postemergence, 31 g ai/ha) was 20. For the same molecule, the Plant response rating ([8]; Postemergence, 62 g ai/ha) was 20, the Plant response rating ([8]; Postemergence, 125 g ai/ha) was 30 and the Plant response rating ([8]; Postemergence, 250 g ai/ha) was 80. It also gave a Plant response rating ([8]; Postemergence, 500 g ai/ha) of 80, a Plant response rating ([8]; Preemergence, 62 g ai/ha) of 40 and a Plant response rating ([8]; Preemergence, 250 g ai/ha) of 95. It also gave a Plant response rating ([8]; Preemergence, 500 g ai/ha) of 95, a Plant response rating ([9]; Postemergence, 31 g ai/ha) of 0 and a Plant response rating ([9]; Postemergence, 62 g ai/ha) of 0. For the same molecule, the Plant response rating ([9]; Postemergence, 125 g ai/ha) was 5, the Plant response rating ([9]; Postemergence, 250 g ai/ha) was 10 and the Plant response rating ([9]; Postemergence, 500 g ai/ha) was 10. The Plant response rating ([9]; Preemergence, 31 g ai/ha) was 0, the Plant response rating ([9]; Preemergence, 62 g ai/ha) was 5 and the Plant response rating ([9]; Preemergence, 125 g ai/ha) was 5. For the same molecule, the Plant response rating ([9]; Preemergence, 250 g ai/ha) was 30, the Plant response rating ([9]; Preemergence, 500 g ai/ha) was 70 and the Plant response rating ([10]; Postemergence, 31 g ai/ha) was 0. For the same molecule, the Plant response rating ([10]; Postemergence, 62 g ai/ha) was 0, the Plant response rating ([10]; Postemergence, 125 g ai/ha) was 5 and the Plant response rating ([10]; Postemergence, 250 g ai/ha) was 10. The Plant response rating ([10]; Postemergence, 500 g ai/ha) was 10, the Plant response rating ([10]; Preemergence, 31 g ai/ha) was 0 and the Plant response rating ([10]; Preemergence, 62 g ai/ha) was 0. It also gave a Plant response rating ([10]; Preemergence, 125 g ai/ha) of 10, a Plant response rating ([10]; Preemergence, 250 g ai/ha) of 20 and a Plant response rating ([10]; Preemergence, 500 g ai/ha) of 60.
